The record followed here is patent US5843481A, “Treatment of proliferative disorders, metastasaes, and drug resistant tumors with vanadate compounds and derivatives or analogues thereof” (priority 1994, dated 1998).

For one data set, the system named is superoxides and H2O2. The data set can be described thus: Levels of superoxides and H2O2 in cells (conclusion of Example 1). The settings on record: conclusion from results. It is filed as cell-based, bovine. The procedure: Bovine articular chondrocytes were isolated and plated as previously described (Kandel R. A. et al. Biochim. Biophys. Acta. 1053, 130-134, 1990). In order to determine the effect of orthovanadate on IL 1 and PMA (phorbol ester) induced responses, chondrocytes were incubated with orthovanadate (100 μM) for 2 hours before stimulation with IL 1 (10 ng/ml) or PMA ([…]). collagenase production was determined by incubating chondrocytes for 24 hours with IL 1 or PMA and the cell conditioned medium was assayed for collagenase activity using an ELISA procedure as described previously (Kandel et al. supra) PLA2 activity was measured by incorporating ^3 H-arachidonic acid (^3 H-AA) into the cells and then incubating the cells with medium containing 1 mg/ml BSA, either alone or in the presence of IL 1 or PMA, for 10 min. as previously described (Conquer, J. A. […], Biochim. Biophys. Acta. 1134, 1-6). The amount of ^3 H-AA liberated into the supernatant was determined. To measure PGE2 production, chondrocytes were incubated for 6 hours in Ham's F12 medium, either alone or with IL 1 or PMA. The supernatant was analyzed by RIA using an antibody specific for PGE2 (Dr. S. A. Jones, Mount Sinai Hospital, Toronto, Can.). In order to examine the expression of c-fos and c-jun, chondrocytes were incubated for 1 hour in the presence of IL-1, PMA or AA (3 μM). […]

The test system of a further data set is MDAY-D2 cells. The data set can be described thus: Viability of MDAY-D2 cells with different vanadyl compounds. It is filed as cell-based, mouse. Particulars: 0-50 μM, 48 hours; FIG. 8. The procedure:
Three different forms of vanadyl compounds were examined for their effect on viability of cancer cell lines. MDAY-D2 cells were incubated in media containing 0-50 μM orthovanadate, vanadyl sulphate, or vanadyl hydroperoxide for 48 hours. The cells were harvested and the number of viable cells determined. […] Although there were slight differences in sensitivity, the overall cell death was similar.

Another data set has as its system fos. The data set can be described thus: Northern blot analysis of fos mRNA expression in chondrocytes. It is filed as cell-based, bovine. The procedure: The cytokine interleukin 1 (IL 1) has been used to identify the intermediate second messengers which regulate the expression of fos and jun.
In order to elucidate this possibility, the effect of DPI on fos and jun mRNA levels induced by IL 1 was investigated. RNA from chondrocytes treated with IL 1 in the presence and absence of DPI were analyzed by Northern blot analysis using either fos or collagenase cDNA probes.
Since superoxides are rapidly converted to hydrogen peroxide in the cell by superoxide dismutase, whether hydrogen peroxide could mimic the effect of IL 1 in the induction of fos expression was investigated. RNA was extracted from chondrocytes (Kandel et al. supra) treated with H2 O2 for 30, 60 and 90 minutes and examined by Northern blot analysis using a fos cDNA probe.
Bovine articular chondrocytes were isolated and plated as previously described (Kandel R. A. et al. Biochim. Biophys. Acta. 1053, 130-134, 1990). In order to determine the effect of orthovanadate on IL 1 and PMA (phorbol ester) induced responses, chondrocytes were incubated with orthovanadate (100 μM) for 2 hours before stimulation with IL 1 (10 ng/ml) or PMA ([…]). collagenase production was determined by incubating chondrocytes for 24 hours with IL 1 or PMA and the cell conditioned medium was assayed for collagenase activity using an ELISA procedure as described previously (Kandel et al. supra) PLA2 activity was measured by incorporating ^3 H-arachidonic acid (^3 H-AA) into the cells and then incubating the cells with medium containing 1 mg/ml BSA, either alone or in the presence of IL 1 or PMA, for 10 min. as previously described (Conquer, J. A. […], Biochim. Biophys. Acta. 1134, 1-6). The amount of ^3 H-AA liberated into the supernatant was determined. To measure PGE2 production, chondrocytes were incubated for 6 hours in Ham's F12 medium, either alone or with IL 1 or PMA. The supernatant was analyzed by RIA using an antibody specific for PGE2 (Dr. S. A. Jones, Mount Sinai Hospital, Toronto, Can.). In order to examine the expression of c-fos and c-jun, chondrocytes were incubated for 1 hour in the presence of IL-1, PMA or AA (3 μM). Chondrocytes were washed in PBS and the total RNA extracted as previously described (Cruz. et al, 1991, Biochem. J. 277, 327-330). RNA samples were run on formaldehyde agarose gels and transferred to nylon membrane for northern analysis using cDNA probes for c-fos and c-jun.
Cells were also incubated as described above with 20 mM N-acetylcyateine for 20 min. and then incubated with IL 1 for an additional 1 or 12 hours. The RNA was extracted and examined by Northern blot analysis using cDNA probes for c-fos and collagenase.

Another data set relates to MDAY-D2. Nature of the data set: MDAY-D2 tumor growth in mice, three vanadyl compounds, Example 6B. It is filed as in vivo. An excerpt: In order to examine the ability of vanadyl compounds to reduce tumor formation, growth and metastases, a specific animal model which allows investigation of all of these processes in the same animal was chosen. This model involves the injection of a metastatic haematopoietic cell line, MDAY-D2, into mice subcutaneously. These cells form a tumor at the site of injection and its size can be easily determined. In addition, these cells metastasize to the liver and metastases can be detected histologically after day 17 to 19. This model provides a very sensitive and reproducible approach to investigate the effect of vanadyl compounds on tumor growth and metastases.
In a separate experiment using the same animal model, the effect of orthovanadate, vanadyl sulphate and vanadyl hydroperoxide administration on tumor growth in vivo was examined. On Day 1, 20 mice were injected with 2×10^5 MDAY-D2 cell subcutaneously. The mice were divided into four groups of five mice. At day 5, the animals were injected subcutaneously with 50 μl of water alone or containing 10 mg/ml of orthovanadate, 10 mg/ml of vanadyl sulphate, or 10 mg/ml of vanadyl hydroperoxide. This treatment was continued daily for 16 days. At day 21, the mice were sacrificed and the tumors dissected and weighed.

The nature of data set [1]: Tolerability/toxicity of orthovanadate in mice, Example 9. It is filed as in vivo. An excerpt:
However, subcutaneous injections of up to 500 μgms orthovanadate is tolerated by the animals. Slow administration of the orthovanadate would decrease toxicity and the animals may tolerate higher doses.

In a further data set the test system is MDAY-D2 and HTB14 cells. Nature of the data set: Viability of proliferating tumor cell lines. It is filed as cell-based, mouse (MDAY-D2); human (HTB14). The procedure:
Fos and jun activity are also required for cellular proliferation in many tumor cell lines. Accordingly, the effect of orthovanadate on adherent cells and cell suspensions were examined. MDAY-D2 (a mouse lymphoid cell line grown in suspension) and HTB14 cells (an adherent human primary astrocytoma cell line) were incubated in media containing 0-50 μM orthovanadate for 48 hours. The cells were harvested and the number of viable cells determined.

For `[O]=[V]([O-])([O-])[O-]` [orthovanadate], in the data set with superoxides and H2O2, the “levels of superoxides and H2O2 in cells” value is “indirectly reduce”. Moreover, the “effectiveness in killing MDAY-D2 cells” value in the data set with MDAY-D2 cells is “equally effective”. Further, the “IL 1, PMA and AA induced c-fos expression” value in the data set with fos (orthovanadate 100 μM, FIGS. 4 and 18) is “completely inhibited”. In addition, the “fos expression in response to factors such as IL 1 or arachidonic acid” value in the data set with fos (summary statement) is “completely inhibit”. Also, the “effect on tumor growth, in words” value with MDAY-D2 (10 mg/ml s.c. daily) is reported as “most efficacy in reducing tumor growth”. Besides, the “mice without detectable tumors” value in the data set with MDAY-D2 (10 mg/ml s.c., day 21) is reported as “one mouse did not have detectable tumors”. For the same molecule, in the data set with MDAY-D2 (10 mg/ml, 50 μl s.c. daily for 16 days, groups of five mice), the animals that died result is recorded as “One animal died”. Also, the intraperitoneal toxicity entry in data set [1] (intraperitoneal, high doses) was “toxic”. In data set [1] (oral, 0.5 mg/ml, laboratory mice), the oral toxicity entry is listed as “gastric toxicity”. In data set [1] (subcutaneous injections), the “tolerated dose, subcutaneous” value is “up to 500 μgms”. Also, the “time by which cell death was observed” value with MDAY-D2 and HTB14 cells was ≤ 24 h. Further, the “cell death, concentration dependence” value with MDAY-D2 and HTB14 cells (0-50 μM, 48 hours, FIG. 7) is reported as “concentration dependent increase in cell death”. For the same molecule, the cell death completeness result in the data set on MDAY-D2 and HTB14 cells (within 3 days of continuous treatment) is listed as “over 98%”.
